Patent US8763410B2, “Method and apparatus for the dissolution and filtration of a hyperpolarized agent with a neutral dissolution media” (General Electric Company, priority 2008, dated 2014)

Assays:
[1] = pH-solubility profile of the EPA; assay type: physicochemical
Source text: In an exemplary embodiment of the invention sterile deionized water is placed in the syringe of the sterile fluid path (SFP), a sample of ^13CPA mixed with EPA is placed in the sample container and NaOH, TRIS, and EDTA are placed in the receiver. Size exclusion filters are placed in the filter cartridge. In this embodiment, the pH-solubility profile of the EPA is considered.

[2] = Measure of pH and EPA residual after neutral (water) dissolution and size exclusion filtration; conditions: 22 g water 130° C., 250 psi; receiver 10 g of 360 mM NaOH, 200 mM TRIS, 268 μM EDTA; two 20 μm frits
Description: A fluid path syringe was filled with 22 g of 18.2 MΩcm water and 10 g of 360 mM NaOH, 200 mM TRIS and 268 μM EDTA was placed in the fluid path receiver. A mixture of ^12C pyruvic acid and EPA were in the approximate ratio of 53:1 was placed in the sample container of the fluid path. The water in the syringe was heated to 130° C. and was pressurized to 250 psi. The filter body was filled with two frits used as particle size exclusion filters (Varian, part number 12131043, 1.5″ diameter, average pore size 20 μm).

## tris {8-carboxyl-2,2,6,6-tetra[2-(1-methoxyethyl)]-benzo(1,2-d:4,5-d′)bis(1,3)dithiole-4-yl}methyl sodium salt [EPA]
[1]; above pH 4
  solubility in aqueous solutions: soluble
[1]; pH less than 4
  particulate diameter: greater than or equal to 10 microns
  solubility in aqueous solution: predominantly insoluble

## CC(=O)C(=O)O [^12C pyruvic acid]
[2]
  pH of resulting solution in the receiver: 7.97
